Results on one molecule are retold here after article PMC6934184, “Selective DNA-PKcs inhibition extends the therapeutic index of localized radiotherapy and chemotherapy” (The Journal of Clinical Investigation, 2019).

For this assay, the target named is T1, RET V804L (Homo sapiens, UniProt P07949, V804L).
T1 construct: purchased Thermo Fisher Scientific (Life Technologies) SelectScreen
The assay is described as follows: SelectScreen Z'LYTE. In kind it is biochemical. In outline:
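NU5455 was profiled across the SelectScreen Broad panel of kinase activity and binding assays. Z'LYTE reactions such as CSF1R ran at apparent Km ATP, while the Adapta CAMK1 assay used ATP listed as 10. Values are given as percent.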

One may read the inhibition as the relative decrease from the control value, in per cent.

T1 sequence (P07949 29-1114 V804L): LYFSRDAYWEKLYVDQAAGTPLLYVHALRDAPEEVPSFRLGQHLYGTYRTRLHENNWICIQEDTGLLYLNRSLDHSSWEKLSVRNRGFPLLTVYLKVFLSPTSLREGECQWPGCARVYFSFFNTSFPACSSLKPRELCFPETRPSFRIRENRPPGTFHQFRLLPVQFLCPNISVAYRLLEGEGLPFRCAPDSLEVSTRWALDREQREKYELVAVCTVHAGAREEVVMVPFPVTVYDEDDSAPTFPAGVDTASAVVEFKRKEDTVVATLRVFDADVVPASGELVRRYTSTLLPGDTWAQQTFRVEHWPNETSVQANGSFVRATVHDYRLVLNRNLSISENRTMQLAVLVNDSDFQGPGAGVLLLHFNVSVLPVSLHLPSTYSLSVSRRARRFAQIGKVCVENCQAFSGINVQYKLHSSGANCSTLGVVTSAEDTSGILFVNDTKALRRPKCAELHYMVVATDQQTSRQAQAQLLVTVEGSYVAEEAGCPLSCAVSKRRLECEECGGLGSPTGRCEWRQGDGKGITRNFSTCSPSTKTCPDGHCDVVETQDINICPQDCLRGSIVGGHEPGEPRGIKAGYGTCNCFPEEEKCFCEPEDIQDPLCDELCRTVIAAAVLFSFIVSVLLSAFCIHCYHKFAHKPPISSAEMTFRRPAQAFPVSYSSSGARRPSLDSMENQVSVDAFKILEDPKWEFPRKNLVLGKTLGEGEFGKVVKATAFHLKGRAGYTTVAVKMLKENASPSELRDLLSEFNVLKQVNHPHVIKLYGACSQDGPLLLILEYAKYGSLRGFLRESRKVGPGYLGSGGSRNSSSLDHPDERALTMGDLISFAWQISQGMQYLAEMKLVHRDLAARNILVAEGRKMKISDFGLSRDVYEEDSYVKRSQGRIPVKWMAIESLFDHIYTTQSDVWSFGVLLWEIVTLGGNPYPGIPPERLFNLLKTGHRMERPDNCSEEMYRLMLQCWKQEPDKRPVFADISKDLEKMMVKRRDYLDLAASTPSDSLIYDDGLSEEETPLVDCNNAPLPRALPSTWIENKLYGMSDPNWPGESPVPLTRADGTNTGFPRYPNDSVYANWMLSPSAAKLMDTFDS

`CN(C(=O)CN1CCOCC1)c1ccc2sc3c(-c4cccc5c(=O)cc(N6CC7CCC(C6)O7)oc45)cccc3c2c1` [NU5455]: the inhibition at 1 µM was -9.1%.
